# Data as given in patent US10517867B2, “Posaconazole derivative, pharmaceutical composition and use thereof” (priority 2016, dated 2019).
# Where two headings read alike, the source gives them in different places.
# Legend:
# [1] = system: Aspergillus Fumigutus (AF) strains; assay: Aspergillus fumigatus keratitis in rats, intravenous administration; details: 10 mg/kg tail vein once daily for 5 days; mean ± SD of 10 rats
# [2] = Determination of solubility in deionized water (HPLC, external standard); details: 25 °C, water, thermodynamic from solid
# [3] = system: Aspergillus fumigatus AF293; assay: Lung Aspergillus fumigatus infection in immunosuppressed mice, intravenous administration; details: for responders at 20 mg/kg: Aspergillus fumigatus, AF293, in Mus musculus, iv; for lung fungal load: mouse lung tissue, seven days later, 20 mg/kg tail vein once daily for 5 days, mean ± SD
# [4] = In vitro metabolic stability in human intestine S9; type: in vitro ADME; details: human, intestinal S9; 37° C., 10 μM compound, 1 mg/mL S9, NADPH regeneration system; read-out: Human intestine S9 T1/2
# Experimental: (§1) This example detects the metabolic stability of the compounds of the present disclosure in human (rat) plasma and intestinal S9 in vitro. In a human (rat) plasma reaction system, 990 μl of human (rat) plasma was taken and incubated at 37° C. for 5 minutes, and 10 μl of the compound mother liquor was used to initiate the reaction. In the human (rat) intestinal S9 stability experiment, in the order shown in Table 2 below, the samples were added and incubated in a 37° C. water bath to initiate the reaction, each sample performed in triplicates. Respectively, at 1 minute, 2 minutes, 5 minutes, 15 minutes, 30 minutes after the reaction began, 100 μL of each was taken and added to a centrifuge tube containing 400 μL of 0° C. precooled internal standard working solution. The reaction was terminated, vortexed and mixed for 1 minute, centrifuged at 10000×g for 10 minutes in a 4° C. precooled high-speed centrifuge, and the supernatant was detected with HPLC. The test results were used to calculate metabolic half-life using WinNonlin (version 6.2 Pharsight, Mountain View, Calif.) with a non-compartmental model.
# (§2) Compound stock solution concentration: 1 mM
# (§3) Reaction matrix: human (rat) plasma, intestinal S9 purchased from Research Institute for Liver Diseases (Shanghai) Co., Ltd.
# [5] = system: Candida albicans ATCC10231; assay: Systemic fungal infection in mice, intravenous administration; type: in vivo, ICR mice
# Experimental: (§4) ICR mice, weighing 18-22 g, male, provided by Hubei Experimental Animal Center.
# (§5) Prior to the experiment, a small amount of Candida albicans was picked from an SDA (sacharomyces agar, the same below) medium kept at 4° C. with an inoculation loop and inoculated into 1 ml YPD (Yeast Extract Peptone Dextrose Medium) culture medium, cultured at 30° C. with 200 rpm shaking and activated for 16 hours, so that the fungus was in the late stage of exponential growth. Counted with a hemocytometer and the fungal solution concentration was adjusted to 1×10^3-5×10^3 CFU/ml with RPMI1640 medium (Roswell Park Memorial Institute 1640, the same below). Monoclonal Candida albicans on SDA plate was picked up, inoculated into 1 ml YPD (Yeast Extract Peptone Dextrose Medium, the same below) culture medium, cultured at 35° C., 200 rpm for 16 hours until late exponential growth phase. Candida albicans was inoculated into fresh medium for culturing for 6 hours at 1%, centrifuged at 1000×g for 5 minutes, washed with physiological saline three times until the supernatant was colorless, counted with a hemocytometer, and the cell concentration was adjusted to 5×10^6 cells/ml. A tail vein injection of 0.1 ml/10 g caused a systemic fungal infection in mice. […] A total of 7 days of observations were performed. All dead mice were burned with ethanol.
# [6] = Solid stability test (stability chamber, HPLC total impurity); type: physicochemical
# [7] = In vitro metabolic stability in rat intestine S9; type: in vitro ADME; details: rat, intestinal S9, pH 7.4; 37° C., 10 μM compound, 1 mg/mL S9, NADPH regeneration system; read-out: Rat intestine S9 T1/2
# Experimental: as §1, §2, §3
# [8] = system: Candida albicans ATCC10231; assay: Systemic fungal infection in mice, intragastric administration; type: in vivo, ICR mice; details: Candida albicans, ATCC10231, po
# Experimental: as §4
# as §5, with “SDA” for “SDA (sacharomyces agar, the same below)”, “YPD” for “YPD (Yeast Extract Peptone Dextrose Medium)”, “1×10^3 to 5×10^3” for “1×10^3-5×10^3”, “medium.” for “medium (Roswell Park Memorial Institute 1640, the same below).”
# [9] = In vitro metabolic stability in rat plasma; type: in vitro ADME; details: rat, plasma, 37° C., 10 μM compound, read-out: Rat plasma T1/2
# Experimental: as §1, §2, §3
# [10] = In vitro metabolic stability in human plasma; type: in vitro ADME; details: human, plasma, 37° C., 10 μM compound, read-out: Human plasma T1/2
# Experimental: as §1, §2, §3
# [11] = 24 h, read-out: survival rate of mice, day 1, 20 mg/kg tail vein once daily for 5 days, day 1
# [12] = 48 h, read-out: survival rate of mice, day 2, 20 mg/kg tail vein once daily for 5 days, day 2
# [13] = 72 h, read-out: survival rate of mice, day 3, 20 mg/kg tail vein once daily for 5 days, day 3
# [14] = 96 h, read-out: survival rate of mice, day 4, 20 mg/kg tail vein once daily for 5 days, day 4
# [15] = 120 h, read-out: survival rate of mice, day 5, 20 mg/kg tail vein once daily for 5 days, day 5
# [16] = 144 h, read-out: survival rate of mice, day 6, 20 mg/kg tail vein once daily for 5 days, day 6
# [17] = 168 h, read-out: survival rate of mice, day 7, 20 mg/kg tail vein once daily for 5 days, day 7
# [18] = 24 h, read-out: survival rate of mice, day 1
# [19] = 48 h, read-out: survival rate of mice, day 2
# [20] = 72 h, read-out: survival rate of mice, day 3
# [21] = 96 h, read-out: survival rate of mice, day 4
# [22] = 120 h, read-out: survival rate of mice, day 5
# [23] = 144 h, read-out: survival rate of mice, day 6
# [24] = 168 h, read-out: survival rate of mice, day 7
# [25] = 24 h, read-out: survival rate of mice, day 1, 20 mg/kg intragastric once daily for 5 days, day 1
# [26] = 48 h, read-out: survival rate of mice, day 2, 20 mg/kg intragastric once daily for 5 days, day 2
# [27] = 72 h, read-out: survival rate of mice, day 3, 20 mg/kg intragastric once daily for 5 days, day 3
# [28] = 96 h, read-out: survival rate of mice, day 4, 20 mg/kg intragastric once daily for 5 days, day 4
# [29] = 120 h, read-out: survival rate of mice, day 5, 20 mg/kg intragastric once daily for 5 days, day 5
# [30] = 144 h, read-out: survival rate of mice, day 6, 20 mg/kg intragastric once daily for 5 days, day 6
# [31] = 168 h, read-out: survival rate of mice, day 7, 20 mg/kg intragastric once daily for 5 days, day 7
SMILES,Amount of active fungi in cornea at day 7 [1],solubility at 30 min [2] [mg/mL],"responders at 20 mg/kg [3, 11] [%]","responders at 20 mg/kg [3, 12] [%]","responders at 20 mg/kg [3, 13] [%]","responders at 20 mg/kg [3, 14] [%]","responders at 20 mg/kg [3, 15] [%]","responders at 20 mg/kg [3, 16] [%]",half-life at 10 µM [4] [min],Total impurity increment in 30 days [6] [%],half-life at 10 µM [7] [min],"responders at 20 mg/kg [8, 25] [%]","responders at 20 mg/kg [8, 26] [%]","responders at 20 mg/kg [8, 27] [%]","responders at 20 mg/kg [8, 28] [%]","responders at 20 mg/kg [8, 29] [%]","responders at 20 mg/kg [8, 30] [%]","responders at 20 mg/kg [8, 31] [%]",half-life at 10 µM [9] [min],half-life at 10 µM [10] [min],further results
CCC([C@H](C)OC(=O)C(O)C(O)COP(=O)(O)O)n1ncn(-c2ccc(N3CCN(c4ccc(OC[C@@H]5CO[C@@](Cn6cncn6)(c6ccc(F)cc6F)C5)cc4)CC3)cc2)c1=O (stereo partly drawn) [ST0001],3.73 ± 0.63 10^3 CFU/ml,47.7,100,100,90,90,80,70,–,–,–,–,–,–,–,–,–,–,–,–,"responders at 20 mg/kg [3, 17]: 70%; lung fungal load [3]: 2.28 ± 0.77 10^4 CFU/ml"
CC[C@@H]([C@H](C)O)n1ncn(-c2ccc(N3CCN(c4ccc(OC[C@@H]5CO[C@@](Cn6c[n+](C(C)OC(=O)N(C)c7ncccc7COC(=O)CCC(=O)O)cn6)(c6ccc(F)cc6F)C5)cc4)CC3)cc2)c1=O (stereo partly drawn) [ST0005],5.90 ± 1.06 10^3 CFU/ml,> 50,100,90,80,80,70,60,–,–,–,–,–,–,–,–,–,–,–,–,"responders at 20 mg/kg [3, 17]: 50%; lung fungal load [3]: 3.40 ± 1.26 10^4 CFU/ml"
CC[C@@H]([C@H](C)O)n1ncn(-c2ccc(N3CCN(c4ccc(OC[C@@H]5CO[C@@](Cn6c[n+](C(C)OC(=O)N(C)c7ncccc7COC(=O)C[C@H](N)C(=O)O)cn6)(c6ccc(F)cc6F)C5)cc4)CC3)cc2)c1=O (stereo partly drawn) [ST0004],5.58 ± 1.12 10^3 CFU/ml,> 50,100,90,80,80,70,60,–,–,–,–,–,–,–,–,–,–,–,–,"responders at 20 mg/kg [3, 17]: 50%; lung fungal load [3]: 3.51 ± 1.38 10^4 CFU/ml"
CC[C@@H]([C@H](C)O)n1ncn(-c2ccc(N3CCN(c4ccc(OC[C@@H]5CO[C@@](Cn6c[n+](C(C)OC(=O)N(C)c7ncccc7COC(=O)[C@@H](N)CC(N)=O)cn6)(c6ccc(F)cc6F)C5)cc4)CC3)cc2)c1=O (stereo partly drawn) [ST0023],–,> 50,–,–,–,–,–,–,15 ± 3.78,0.42,16.7 ± 2.96,100,100,90,90,90,80,80,0.55 ± 0.78,0.94 ± 0.15,"responders at 20 mg/kg [5, 18]: 100%; responders at 20 mg/kg [5, 19]: 100%; responders at 20 mg/kg [5, 20]: 100%; responders at 20 mg/kg [5, 21]: 100%; responders at 20 mg/kg [5, 22]: 100%; responders at 20 mg/kg [5, 23]: 90%; responders at 20 mg/kg [5, 24]: 90%"
CC[C@@H]([C@H](C)O)n1ncn(-c2ccc(N3CCN(c4ccc(OC[C@@H]5CO[C@@](Cn6c[n+](C(C)OC(=O)N(C)c7ncccc7COC(=O)[C@@H](N)CO)cn6)(c6ccc(F)cc6F)C5)cc4)CC3)cc2)c1=O (stereo partly drawn) [ST0025],–,> 50,–,–,–,–,–,–,25 ± 4.76,0.55,22.5 ± 5.96,100,100,90,90,80,80,80,1.22 ± 0.85,0.92 ± 0.03,"responders at 20 mg/kg [5, 18]: 100%; responders at 20 mg/kg [5, 19]: 100%; responders at 20 mg/kg [5, 20]: 100%; responders at 20 mg/kg [5, 21]: 100%; responders at 20 mg/kg [5, 22]: 100%; responders at 20 mg/kg [5, 23]: 90%; responders at 20 mg/kg [5, 24]: 90%"
CC[C@@H]([C@H](C)O)n1ncn(-c2ccc(N3CCN(c4ccc(OC[C@@H]5CO[C@@](Cn6c[n+](C(C)OC(=O)N(C)c7ncccc7COC(=O)[C@@H](N)[C@@H](C)O)cn6)(c6ccc(F)cc6F)C5)cc4)CC3)cc2)c1=O (stereo partly drawn) [ST0026],–,> 50,–,–,–,–,–,–,16.4 ± 7.54,0.46,19 ± 5.96,100,100,90,80,70,70,70,2.69 ± 1.21,1.03 ± 0.09,–
CC[C@@H]([C@H](C)O)n1ncn(-c2ccc(N3CCN(c4ccc(OC[C@@H]5CO[C@@](Cn6c[n+](C(C)OC(=O)N(C)c7ncccc7COC(=O)[C@@H](N)CCC(N)=O)cn6)(c6ccc(F)cc6F)C5)cc4)CC3)cc2)c1=O (stereo partly drawn) [ST0022],–,> 50,–,–,–,–,–,–,17.7 ± 4.52,0.48,19 ± 5.36,100,100,100,90,80,80,70,1.12 ± 0.45,1.39 ± 0.52,–
